From patent publication US10899759B2, “Positive allosteric modulators of the muscarinic acetylcholine receptor M1” (Vanderbilt University, priority 2016, dated 2021)

Molecular target: T1, human mAChR M1 (Homo sapiens, UniProt P11229)
T1 construct: host or cells: CHO-K1
T1 sequence (P11229 1-460): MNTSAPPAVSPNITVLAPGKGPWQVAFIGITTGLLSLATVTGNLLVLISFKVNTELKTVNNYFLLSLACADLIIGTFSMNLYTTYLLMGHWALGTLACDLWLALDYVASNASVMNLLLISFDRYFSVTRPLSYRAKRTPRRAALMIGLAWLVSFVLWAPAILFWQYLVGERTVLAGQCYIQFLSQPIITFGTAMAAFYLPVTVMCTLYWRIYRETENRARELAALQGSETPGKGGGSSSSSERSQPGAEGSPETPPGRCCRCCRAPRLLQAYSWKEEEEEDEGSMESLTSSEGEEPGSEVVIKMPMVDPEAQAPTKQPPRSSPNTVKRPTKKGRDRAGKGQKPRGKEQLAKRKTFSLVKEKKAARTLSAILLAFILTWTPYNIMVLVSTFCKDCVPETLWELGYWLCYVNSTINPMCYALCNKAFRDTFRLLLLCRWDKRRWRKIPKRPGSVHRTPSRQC
Test: mAChR M1 cell-based functional assay (calcium mobilization, Fluo-4, FDSS)
Details: CHO-K1 cells stably expressing hM1; for Emax: EC20 acetylcholine response, read-out: Human M1 Emax; for EC50: positive allosteric modulator activity as increase in the EC20 acetylcholine response
How it was run: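 CHO-K1 cells stably expressing muscarinic receptor, loaded with Fluo-4; 11-point 1:3 compound series added and calcium flux read over 300 s at 1 Hz. Agonism from direct calcium rise, PAM activity as potentiation of EC20 acetylcholine, antagonism as decrease of EC80 acetylcholine; four-parameter logistic fits.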

Emax | EC50 | Structure (SMILES)
64.2% | 950 nM | COCC(C)NC(=O)c1cc(Cc2ccc(-c3coc(C)n3)cc2)c2ccsc2n1 (stereo not drawn) [Compound 144, N-(2-methoxy-1-methyl-ethyl)-4-[[4-(2-methyloxazol-4-yl)phenyl]methyl]thieno[2,3-b]pyridine-6-carboxamide]
74.2% | 920 nM | Cn1ccc(-c2ccc(Cc3cc(C(=O)N[C@H]4CC[C@@H]4O)nc4c3ccn4C)cn2)n1 [Compound 156, N-[(1S,2S)-2-hydroxycyclobutyl]-1-methyl-4-[[6-(1-methylpyrazol-3-yl)-3-pyridyl]methyl]pyrrolo[2,3-b]pyridine-6-carboxamide]
38.6% | 10 nM | Cn1cc(-c2ccc(Cc3cc(C(=O)NC4CCOCC4)nc4sccc34)cn2)cn1 [Compound 114, 4-[[6-(1-methylpyrazol-4-yl)-3-pyridyl]methyl]-N-tetrahydropyran-4-yl-thieno[2,3-b]pyridine-6-carboxamide]
69.6% | 390 nM | O=C(N[C@H]1CCOC1)c1cc(Cc2ccc(-n3cccn3)cc2)c2ccsc2n1 [Compound 77, 4-[(4-pyrazol-1-ylphenyl)methyl]-N-[(3S)-tetrahydrofuran-3-yl]thieno[2,3-b]pyridine-6-carboxamide]
66.1% | 2530 nM | Cn1ccc(-c2ccc(Cc3cc(C(=O)NC4CC(F)(F)C4)nc4c3ccn4C)cn2)n1 [Compound 154, N-(3,3-difluorocyclobutyl)-1-methyl-4-[[6-(1-methylpyrazol-3-yl)-3-pyridyl]methyl]pyrrolo[2,3-b]pyridine-6-carboxamide]
55.4% | 110 nM | Cn1ccc2c(Cc3ccc(-c4nccs4)cc3)cc(C(=O)N[C@H]3CCCC[C@@H]3O)nc21 [Compound 60, N-[(1S,2S)-2-hydroxycyclohexyl]-1-methyl-4-[(4-thiazol-2-ylphenyl)methyl]pyrrolo[2,3-b]pyridine-6-carboxamide]
56.2% | 520 nM | CC1CC(NC(=O)c2cc(Cc3ccc(-c4ccn(C)n4)cc3)c3ccsc3n2)CC(C)O1 (stereo not drawn) [Compound 91, N-(2,6-dimethyltetrahydropyran-4-yl)-4-[[4-(1-methylpyrazol-3-yl)phenyl]methyl]thieno[2,3-b]pyridine-6-carboxamide]
60.6% | 620 nM | Cc1nc(-c2ccc(Cc3cc(C(=O)N[C@H]4CCOC4)nc4sccc34)cc2)co1 [Compound 136, 4-[[4-(2-methyloxazol-4-yl)phenyl]methyl]-N-[(3S)-tetrahydrofuran-3-yl]thieno[2,3-b]pyridine-6-carboxamide]
61.8% | 140 nM | CCn1ccc2c(Cc3ccc(-n4cccn4)cc3)cc(C(=O)N[C@H]3CCCCC[C@@H]3O)nc21 [Compound 15, 1-ethyl-N-[(1S,2S)-2-hydroxycycloheptyl]-4-[(4-pyrazol-1-ylphenyl)methyl]pyrrolo[2,3-b]pyridine-6-carboxamide]
59.7% | 50 nM | Cn1cc(-c2ccc(Cc3cc(C(=O)NC4CCOC(C)(C)C4)nc4sccc34)cn2)cn1 (stereo not drawn) [Compound 115, N-(2,2-dimethyltetrahydropyran-4-yl)-4-[[6-(1-methylpyrazol-4-yl)-3-pyridyl]methyl]thieno[2,3-b]pyridine-6-carboxamide]
69.9% | 60 nM | CCn1ccc2c(Cc3ccc(-n4cccn4)cc3)cc(C(=O)N[C@H]3CCCC[C@@H]3O)nc21 [Compound 10, 1-ethyl-N-[(1S,2S)-2-hydroxycyclohexyl]-4-[(4-pyrazol-1-ylphenyl)methyl]pyrrolo[2,3-b]pyridine-6-carboxamide]
74.3% | 370 nM | Cn1ccc(-c2ccc(Cc3cc(C(=O)N[C@@H]4CCC[C@H]4O)nc4c3ccn4C)cc2)n1 [Compound 42, N-[(1R,2R)-2-hydroxycyclopentyl]-1-methy1-4-[[4-(1-methylpyrazol-3-yl)phenyl]methyl]pyrrolo[2,3-b]pyridine-6-carboxamide]
